Values quoted from earlier work as cited in patent publication US20150190413A1, “COMPOSITIONS AND METHODS FOR THE TREATMENT OF BLADDER CANCER” (Endo Pharmaceuticals Solutions Inc., priority 2007, published 2015).
Where two headings read alike, the source gives them in different places.

Tested on: epithelium of the bladder
Settings: rabbit

C[S+](C)[O-] [DMSO, dimethyl sulfoxide]
Effect on epithelium of the bladder (five percent solutions of DMSO in water): sensitive
Effect on bladder cells (one hundred percent DMSO): fixed
Effect on epithelium of the bladder (twenty percent solutions of DMSO in water): loss of epithelial cells
